Experimental data from US12005078B2, “Genetically engineered drug resistant T cells and methods of using the same” (The UAB Research Foundation, priority 2015, dated 2024).

Legend:
[1] = test system: X12T glioma; assay: Survival of TMZ-resistant glioma-bearing mice; format: in vivo; conditions: cells given as single administration per week
From the text: (§1) The expression of NKG2DL on tumor cells increases the overall potency of γδ T cell therapy. FIGS. 5A and 5B show the survival of X12P and X12T (TMZ resistant) glioma-bearing mice, respectively, in response to various treatments. […] The DRI treatment regimen increased median survival from 57 to 75 days over the TMZ treatment regimen. […] The DRI treatment regimen increased median survival from 22 to 27 days over the TMZ treatment regimen. The effect of the DRI treatment regimen could be increased by intensification of the administration of the γδ T cells and NK cells from a single administration per week (as shown in FIG. 2) to two administrations per week (data not shown).

[2] = test system: X12P glioma; assay: Survival of glioma-bearing mice; format: in vivo
From the text: as §1

Cn1nnc2c(C(N)=O)ncn2c1=O [TMZ, temozolomide]
median survival [1]: 22 days
median survival [2]: 57 days
